Patent publication US7049340B1, “Neuroprotective and retinoprotective ophthalmologic drugs” (priority 1999, dated 2006)
Where “and” joins values, the source holds several entries; their conditions need not be identical. Identical values can stand only once.

Legend:
Assay type in all cases: in vivo, human
[1] = system: patients with glaucomatous neuropathy; test: Clinical treatment of glaucomatous neuropathy: visual acuity, automated perimetry, ocular tension; settings: for Mean drop MD: normal −2..2; for Corr. Loss variance CLV: normal 0..4; for Loss variance LV: normal 0..6; for visual acuity after treatment: most spectacular case
Description: (§1) The invention will now be illustrated by the following description of clinical examples which, of course, are not limiting in nature. In these examples the active principle, in particular ramipril, was administered continuously in an oral form, in an amount of 1.25 mg per day.
FIGS. 1 and 2 reproduce the fields of vision of the left eye; FIGS. 3 and 4 reproduce the field of vision of the right eye as perceived by one of the treated patients who suffered from glaucomatous neuropathy, respectively before treatment (FIGS. 1 and 3) and after treatment, 10 days later (FIGS. 2 and 4).
(§2) The grey scale provides an “image” of visual function, point by point, of different regions of the retina; the palest zones correspond to regions in which the visual functions are the least altered; the darkest zones correspond to those that have altered the most. […] A reduction in the darkest regions also indicates local visual recovery in regions that have become lighter.
(§3) The values that appear in the right hand portions of the figures correspond to the threshold values measured locally at set points in the retina. […] In contrast, the values that appear in the lower right hand portions of the figures correspond to local loss of vision in the zones concerned of the retina compared with the normal.
(§4) The Bebie curves also provide comparative images of the visual capacity of the subject under examination (lower curves) compared with the curves for normal or quasi-normal subjects (upper curves).

[2] = system: patients with age-related macular degeneration; test: Clinical treatment of age-related macular degeneration (ARMD): visual acuity
Description: as §1
By way of example, visual acuity changed respectively from 0.16 to 0.3; 0.2 to 0.5; from 0.05 to 0.2 (right eye) and 0.05 to 0.15 (left eye); from 0.2 to 0.4 (right eye) and from 0.5 to 0.8 (left eye); from 0.6 to 1; from 0.4 to 0.6 (right eye) and from 0.2 to 0.5 (left eye).

[3] = system: patients with retinitis pigmentosa; test: Clinical treatment of retinitis pigmentosa: visual acuity, automated perimetry, electroretinogram; settings: for visual acuity after treatment: 1.25 mg orally, two months; for Mean drop MD: normal −2..2; for Corr. Loss variance CLV: normal 0..4; for Loss variance LV: normal 0..6; for Mean sensitivity MS: sectorial retinitis pigmentosa
Description: as §1
FIGS. 5 and 6 reproduce the fields of vision of the left eye; FIGS. 7 and 8 reproduce the field of vision of the right eye as perceived by one of the treated patients who suffered from sectorial retinitis pigmentosa, respectively before treatment (FIGS. 5 and 7) and after treatment, two months later (FIGS. 6 and 8).
as §2, §3, §4
Three patients were treated with 1.25 mg of ramipril orally and their visual acuity improved in the space of two months: […]

[4] = system: patient with Stargardt's disease, fundus flavimaculatus; test: Clinical treatment of Stargardt's flavimaculatus disease: visual acuity; settings: for visual acuity after treatment: one patient
Description: as §1
(§5) Ramipril was used in the following three disorders: retinitis pigmentosa; Stargardt's disease, fundus flavimaculatus; adult pseudo-vitelliform dystrophy.
One patient was treated; acuity improved from 1/20 to 1/10 in the right eye and from 1/50 to 3/10 in the left eye.

[5] = system: patient with pseudovitelliform dystrophy; test: Clinical treatment of adult pseudo-vitelliform dystrophy: visual acuity; settings: for visual acuity after treatment: one patient, one month
Description: as §1, §5
One patient was tested. Acuity improved in one month from 1.6 to 2/10 in the right eye and from 2/10 to 3/10 in the left eye. The activity of the ramipril in these hereditary dystrophies is unique.

[6] = system: patients with retinal venous occlusion; test: Clinical treatment of retinal venous occlusions; settings: for visual acuity after treatment: oedematous and ischemic type venous branch occlusion, two months
Description: as §1

[7] = system: patients with central serous chorioretinopathy; test: Clinical treatment of retinal epitheliopathy and central serous chorioretinopathy (CSCR); settings: in a few days to a few weeks
Description: as §1

[8] = system: healthy subject; test: General arterial pressure at doses that improve field of vision; settings: healthy subject
From the text: Effective doses for producing effects in the ophtalmologic field are desirably lower than doses that would induce general arterial hypotension in a subject with normal pressure. Clearly, the doses that can be used can be higher in subjects with hypertension, although this is not necessary, since the desired effect is that obtained in the ophtalmologic field.

- effect on arterial pressure of doses that improve field of vision [8]: do not cause arterial hypertension
SMILES: CCOC(=O)[C@H](CCc1ccccc1)N[C@@H](C)C(=O)N1[C@H](C(=O)O)C[C@@H]2CCC[C@@H]21 [ramipril]
- scotomas ([1]; automated perimetry): absolute scotomas became relative
- reduction of loss in mean sensitivity ([1]; automated perimetry, on average): 30%
- ocular tension ([1]; irregular amount): Significant reduction
- Mean drop MD ([1]; left eye after treatment (10 days), Mean, before 9.9): 6.2 dB
- Corr. Loss variance CLV ([1]; left eye after treatment (10 days), Mean, before 22.4): 13.1 dB^2
- Mean sensitivity MS ([1]; left eye after treatment (10 days), Mean, before treatment 16.5): 20.2
- Mean drop MD ([1]; left eye after treatment (10 days), Phase 1, before 9.5): 5.7 dB
- Loss variance LV ([1]; left eye after treatment (10 days), Phase 1, before 26.8): 16.8 dB
- Mean sensitivity MS ([1]; left eye after treatment (10 days), Phase 1, before treatment 16.9): 20.0
- Mean drop MD ([1]; left eye after treatment (10 days), Phase 2, before 9.4): 6.8 dB
- Loss variance LV ([1]; left eye after treatment (10 days), Phase 2, before 29.3): 26.5 dB
- Mean sensitivity MS ([1]; left eye after treatment (10 days), Phase 2, before treatment 17.3): 20.0
- visual acuity after treatment ([1]; LE, before 3/10): 10/10
- visual acuity after treatment ([1]; RE, before 6/10): 8/10
- Mean drop MD ([1]; right eye after treatment (10 days), Mean, before 9.5): 4.8 dB
- Corr. Loss variance CLV ([1]; right eye after treatment (10 days), Mean, before 21.8): 13.1 dB^2
- Mean sensitivity MS ([1]; right eye after treatment (10 days), Mean, before treatment 16.9): 21.6
- Mean drop MD ([1]; right eye after treatment (10 days), Phase 1, before 9.0): 4.1 dB
- Loss variance LV ([1]; right eye after treatment (10 days), Phase 1, before 28.6): 17.2 dB
- Mean sensitivity MS ([1]; right eye after treatment (10 days), Phase 1, before treatment 17.4): 22.2
- Mean drop MD ([1]; right eye after treatment (10 days), Phase 2, before 9.3): 4.7 dB
- Loss variance LV ([1]; right eye after treatment (10 days), Phase 2, before 21.0): 10.4 dB
- Mean sensitivity MS ([1]; right eye after treatment (10 days), Phase 2, before treatment 17.4): 21.9
- visual acuity after treatment ([2]; case 1, before 0.16): 0.3
- visual acuity after treatment ([2]; case 2, before 0.2): 0.5
- visual acuity after treatment ([2]; case 3, left eye, before 0.05): 0.15
- visual acuity after treatment ([2]; case 3, right eye, before 0.05): 0.2
- visual acuity after treatment ([2]; case 4, left eye, before 0.5): 0.8
- visual acuity after treatment ([2]; case 4, right eye, before 0.2): 0.4
- visual acuity after treatment ([2]; case 5, before 0.6): 1
- visual acuity after treatment ([2]; case 6, left eye, before 0.2): 0.5
- visual acuity after treatment ([2]; case 6, right eye, before 0.4): 0.6
- visual acuity ([2]; majority of patients, with or without sub-retinal neovessels): improved visual acuity
- visual acuity after treatment ([3]; first patient, right eye, before doubtful light perception): 1/50
- visual function ([3]; retinitis pigmentosa, all cases): improvement in visual function
- visual acuity after treatment ([3]; second patient, monophthalmic, before 2/10): 5/10
- visual acuity after treatment ([3]; third patient (sectorial), left eye, before 1.6): 4/10
- visual acuity after treatment ([3]; third patient (sectorial), right eye, before 1.6): 6/10
- Mean drop MD ([3]; third patient, left eye after two months, Mean, before 10.3): 6.5 dB
- Corr. Loss variance CLV ([3]; third patient, left eye after two months, Mean, before 52.5): 48.0 dB^2
- Mean drop MD ([3]; third patient, left eye after two months, Phase 1, before 9.8): 6.2 dB
- Loss variance LV ([3]; third patient, left eye after two months, Phase 1, before 60.6): 51.8 dB
- Mean drop MD ([3]; third patient, left eye after two months, Phase 2, before 9.6): 7.0 dB
- Loss variance LV ([3]; third patient, left eye after two months, Phase 2, before 52.8): 63.9 dB
- Mean drop MD ([3]; third patient, right eye after two months, Mean, before 10.6): 8.8 dB
- Corr. Loss variance CLV ([3]; third patient, right eye after two months, Mean, before 66.0): 65.6 dB^2
- Mean drop MD ([3]; third patient, right eye after two months, Phase 1, before 10.2): 8.7 dB
- Loss variance LV ([3]; third patient, right eye after two months, Phase 1, before 70.4): 67.5 dB
- Mean drop MD ([3]; third patient, right eye after two months, Phase 2, before 11.5): 9.2 dB
- Loss variance LV ([3]; third patient, right eye after two months, Phase 2, before 86.9): 79.8 dB
- Mean sensitivity MS ([3]; third patient, left eye after two months, Mean, before 16.8): 19.9 and 20.9
- Mean sensitivity MS ([3]; third patient, left eye after two months, Phase 1, before 17.3): 21.2
- Mean sensitivity MS ([3]; third patient, left eye after two months, Phase 2, before 17.9): 20.8
- Mean sensitivity MS ([3]; third patient, right eye after two months, Mean, before 16.5): 18 and 18.3
- Mean sensitivity MS ([3]; third patient, right eye after two months, Phase 1, before 16.8): 18.4
- Mean sensitivity MS ([3]; third patient, right eye after two months, Phase 2, before 16.0): 18.2
- electroretinogram ([3]; third patient, especially in the red and in the left eye): substantially improved
- visual function ([4]; Stargardt's disease, fundus flavimaculatus, all cases): improvement in visual function
- visual acuity after treatment ([4]; left eye, before 1/50): 3/10
- visual acuity after treatment ([4]; right eye, before 1/20): 1/10
- visual function ([5]; adult pseudo-vitelliform dystrophy, all cases): improvement in visual function
- visual acuity after treatment ([5]; left eye, before 2/10): 3/10
- visual acuity after treatment ([5]; right eye, before 1.6): 2/10
- visual acuity after treatment ([6]; first patient, before 2/10): 8/10
- functional and angiographic outcome ([6]; majority of patients treated): improved both on the functional and on the angiographic level
- visual acuity after treatment ([6]; second patient, before 6/10): 10/10
- blister (retinal serous detachment) [7]: reduction in the blister
- visual acuity and central field of vision [7]: improvement in visual acuity and in the central field of vision
